Experiments:
[1] = test system: ID8-Defb29/Vegf-a ovarian cancer; assay: In vivo orthotopic syngeneic ID8-Defb29/Vegf-a ovarian cancer mouse model
Procedure: For orthotopic syngeneic model, luciferase expressing ID8-Defb29/Vegf-a with inducible shHMGB2 cells were pretreated with 2 μM Cisplatin for 48 hours to induce CCFs. 5×10^6 cells were i.p. injected into the peritoneal cavity of C57BL/6 mouse (female, 6-8 weeks old, CRL/NCI) (Zhu et al., 2016). Animals were randomly assigned to different treatment groups (10 mice/group). The mice in control groups were fed with control rodent diet (Fisher Scientific. Cat. No: 14-726-309). For the HMGB2 knockdown groups, mice were fed with Bio-Serv™ Doxycycline Grain-Based Rodent Diet (Fisher Scientific. Cat. No: 14-727-450) to induce HMGB2 knockdown. Tumor progression was monitored twice a week using a Xenogen IVIS Spectrum in vivo bioluminescence imaging system. Images were analyzed using Live Imaging 4.0 software. Tumor-bearing mice were treated by i.p. injection with isotype control IgG or anti-PD-L1 antibody (Bio X Cell, Cat. No: B7-H1, clone 10 F.9G2, 10 mg kg^-1) every 3 days with or without simultaneous TOP1 inhibitor camptothecin treatment (Selleck Cat. No: S1288; 8 mg kg^-1). For survival analysis, the Wistar Institute IACUC guideline was followed in determining the time for ending the survival experiments (tumor burden exceeds 10% of body weight).

SASP factors = assay: Secreted cytokine antibody array, IMR90 cells; assay type: cell-based, human; details: HMGB2 knockdown senescent IMR90 cells
Procedure: For cytokine-array analysis, cells were washed once and cultured in serum-free medium for 48 hours (Nacarelli et al., 2019). Conditioned medium was filtered (0.2 μm) and then subjected to cytokine-array assay using Human Cytokine Array C1 kit (RayBiotech. Cat. No: AAH-CYT-1-2) following the manufacturer's guidelines. After collection of conditional media, the cell number of each sample was counted. The intensities of array dots were visualized on film after incubation with SuperSignal West Pico PLUS Chemiluminescent Substrate (Thermo Fisher Scientific. Cat. No: 34580). The integrated density was measured using Image J and normalized to the cell number from which the conditioned medium was generated.

TOP1cc = target: T1, TOP1cc (Mus musculus, UniProt Q04750); assay: Slot blot analysis of TOP1cc levels in CCF of senescent ID8-Defb29/Vegf-a cells; assay type: cell-based; details: HMGB2 knockdown Cisplatin-induced senescent ID8-Defb29 Vegf-a cells
T1 construct: endogenous in cells; host or cells: UPK10 mouse ovarian cancer cells, sorted senescent and non-senescent fractions
T1 sequence (Q04750 1-767): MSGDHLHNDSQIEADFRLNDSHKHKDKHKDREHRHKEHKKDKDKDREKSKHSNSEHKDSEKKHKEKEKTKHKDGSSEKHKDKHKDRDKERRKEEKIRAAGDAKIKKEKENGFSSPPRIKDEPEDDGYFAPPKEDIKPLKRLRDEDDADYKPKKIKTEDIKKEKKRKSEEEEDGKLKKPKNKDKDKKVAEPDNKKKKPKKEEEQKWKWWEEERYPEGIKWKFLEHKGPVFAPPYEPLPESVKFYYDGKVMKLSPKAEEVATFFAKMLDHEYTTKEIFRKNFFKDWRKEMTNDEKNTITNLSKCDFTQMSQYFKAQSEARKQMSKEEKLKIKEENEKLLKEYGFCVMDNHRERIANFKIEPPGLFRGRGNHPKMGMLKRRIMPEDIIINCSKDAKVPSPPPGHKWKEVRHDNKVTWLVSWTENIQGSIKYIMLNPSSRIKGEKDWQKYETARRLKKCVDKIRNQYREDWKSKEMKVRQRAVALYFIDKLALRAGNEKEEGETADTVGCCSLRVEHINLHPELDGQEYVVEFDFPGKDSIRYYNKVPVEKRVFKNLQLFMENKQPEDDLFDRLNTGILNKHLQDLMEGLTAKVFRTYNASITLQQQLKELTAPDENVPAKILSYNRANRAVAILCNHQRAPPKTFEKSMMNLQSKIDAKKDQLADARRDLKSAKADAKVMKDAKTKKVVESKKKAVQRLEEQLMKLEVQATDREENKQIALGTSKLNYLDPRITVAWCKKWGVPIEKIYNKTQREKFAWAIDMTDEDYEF
Procedure: A CCF purification protocol was developed by modifying previous protocols (Shimizu et al., 1996; Ly et al., 2017). Briefly, 500 million senescent cells were collected, resuspended, and incubated in DMEM containing 10 μg/mL cytochalasin B for 30 minutes at 37° C. After wash once with ice-cold PBS, the cell pellet was gently dounce homogenized in ice-cold pre-chilled lysis buffer (10 mM Tris-HCl, 2 mM magnesium acetate, 3 mM CaCl2), 0.32 M sucrose, 0.1 mM EDTA, 1 mM DTT, 0.1% NP-40, 0.15 mM spermine, 0.75 mM spermidine, 10 μg/ml cytochalasin B, pH 8.5, 4° C.) with ten slow strokes of a loose-fitting pestle. Release of nuclei was confirmed by DAPI-staining and microscopy. The homogenate was fixed with 1% formaldehyde for 10 minutes, and mixed well with an equal volume of 1.6M sucrose buffer (10 mM Tris-HCl, 5 mM magnesium acetate, 0.1 mM EDTA, 1 mM DTT, 0.3% BSA, 0.15 mM spermine, 0.75 mM spermidine, pH 8.0, 4° C.). A 10 mL portion of homogenate was layered on the top of sucrose buffer gradient (20 mL and 15 mL containing 1.8M and 1.6M of sucrose, respectively) in a 50 mL tissue culture tube. The tubes were centrifuged at 1200×g for 20 minutes at 4° C. After centrifugation, the upper 3 mL of the gradient was discarded, and the next 15 mL containing CCFs was collected. […] DNA concentration was measured using Nanodrop and 5 μg DNA was used for slot blot analysis.

CC[C@@]1(O)C(=O)OCc2c1cc1n(c2=O)Cc2cc3ccccc3nc2-1 [CPT, Camptothecin]
anti-PD-L1 treatment response (tumor growth by luciferase bioluminescence) ([1]; HMGB2 knockdown tumors, CPT 8 mg kg-1 i.p. with anti-PD-L1 antibody 10 mg kg-1 every 3 days): significantly restored the anti-PD-L1 response
body weight of the treated mice ([1]; anti-PD-L1 antibody-treated group, during treatment period): did not affect the body weight
survival of mice ([1]; mice bearing HMGB2 knockdown tumors, CPT with anti-PD-L1 antibody): rescued the survival
secretion of SASP factors (antibody array) (SASP factors): restoration of the secretion of SASP factors
TOP1cc levels in CCF (TOP1cc): Rescue of the decrease in TOP1cc levels
